In experiment [1] the test system is Halomonas elongata DSMZ 2581. The experiment in a line: Growth of Halomonas elongata on lactate and crotonate as the carbon source (OD600). The class given is cell-based. As to conditions: 3 g/L crotonic acid alone; MM63 medium, 60 g/L NaCl, pH 8.0. The procedure:
FIG. 30B: Growth of Halomonas elongata DSMZ 2581 in MM63 medium containing 3 g/L lactate, 3 g/L crotonate, and mixture of 3 g/L lactate and 3 g/L crotonate as indicated. MM63 medium contained 13.61 g/L KH·PO4, 4.21 g/L KOH, 1.98 (NH4)2SO4, 0.0011 g/L FeSO4—H2O 0.25 g/L MgSO4-7H2O, and 60 g/L NaCl set at pH=8.0. Points represent the average of three replicates and error bars are one standard deviation.
Media was prepared with MM63 minimal salts medium directly and used as a growth substrate for Halomonas elongata strain. MM63 minimal salts medium contains 13.61 g/L KH·PO4, 4.21 g/L KOH, 1.98 (NH4)2SO4, 0.0011 g/L FeSO4—H2O 0.25 g/L MgSO4-7H2O, 60 g/L NaCl. […] Assuming linearity in biomass to substrate loading, and assuming the major carbon source was crotonate and/or lactate, the increased optical density over time would indicate a high conversion of the substrates in the Halomonas strain.
Cell density was measured using a spectrophotometric assay detecting absorbance of each well/cuvette at 600 nm. The measurements were performed using a Thermo Scientific Genesys 150 spectrophotometer. A non-inoculated control was used to subtract background absorbance.

Another experiment has as its system WT Halomonas elongata. Nature of the experiment: Growth of WT Halomonas elongata on subcritical water products and ethylene glycol (OD600). Particulars: 5 g/L ethylene glycol; minimal salts medium, 60 g/L NaCl. The class given is cell-based.

Protocol for WT Halomonas elongata: This was prepared with minimal salts medium directly and used as a growth substrate for the WT Halomonas elongata strain.
The SCW product contained 4.1 g/L EG, and the final medium preparation contained ˜1.6 g/L EG.

For `C/C=C/C(=O)O` [crotonate, crotonic acid], the final optical density in experiment [1] is on record as 6.0.
As to `OCCO` [ethylene glycol], in the experiment on WT Halomonas elongata, the “final OD600” value is given as 3.16.
